The values below come from patent publication US9573913B2, “Cathepsin cysteine protease inhibitors” (Merck Sharp & Dohme Corp., priority 2013, dated 2017).

One test has as its target T1, human cathepsin F (Homo sapiens, UniProt Q9UBX1).
T1 sequence (Q9UBX1 271-484): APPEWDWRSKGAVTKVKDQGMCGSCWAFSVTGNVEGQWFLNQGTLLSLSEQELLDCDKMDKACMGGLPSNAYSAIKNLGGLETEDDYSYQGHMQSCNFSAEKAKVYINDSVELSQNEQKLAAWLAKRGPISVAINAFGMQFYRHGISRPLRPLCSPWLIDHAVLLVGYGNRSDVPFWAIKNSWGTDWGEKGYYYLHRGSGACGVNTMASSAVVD
Briefly: Cathepsin F assay (hCat F). Particulars: Z-Phe-Arg-AMC substrate, pH 5.5, 15 min preincubation; read-out: hCat F (IP (nM)). The class given is biochemical. The gist of the method:
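AMC release from Z-Phe-Arg-AMC, added at 8 μM, was monitored fluorometrically (360/460 nm) for 20 min after 10 nM enzyme and compound had been preincubated 15 min at room temperature. Buffer: MES 50 mM pH 5.5, EDTA and DTT 2.5 mM each, 10% DMSO. Compound DMSO dilutions spanned 500–0.025 μM (3-fold). Dose-response fitting gave % inhibition.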

The target in the next test is human cathepsin K (UniProt P43236). Briefly: Cathepsin K Assay (hrbCat K). The class given is biochemical. The conditions noted are these: Z-Leu-Arg-AMC substrate, pH 5.5, 15 min preincubation; read-out: hrbCat K (IP (nM)). An outline of the steps: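 Human cathepsin K (0.4 nM) was preincubated 15 min at room temperature with compound in 50 mM MES pH 5.5, 2.5 mM EDTA, 2.5 mM DTT and 10% DMSO. Inhibition was fitted to a dose-response model.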

The structures appear in SMILES notation.

Regarding `COc1cccc(-c2nc([C@@H]3CCCC[C@H]3C(=O)NC3(C#N)CC3)c(-c3ccc(N4CCS(=O)(=O)CC4)cc3)s2)c1` [Example 56, (1R,2R)-N-(1-cyanocyclopropyl)-2-(5-(4-(1,1-dioxidothiomorpho-lino)phenyl)-2-(3-methoxyphenyl)thi-azol-4-yl)cyclohexane-carboxamide], the IC50 was determined as 821 nM at human cathepsin F and 1.8 nM at human cathepsin K.

As to `N#CC1(NC(=O)[C@@H]2CCCC[C@H]2c2nc(-c3cc(F)cc(F)c3)sc2-c2ccc(N3CCS(=O)(=O)CC3)cc2)CC1` [Example 57, (1R,2R)-N-(1-cyanocyclopropyl)-2-(2-(3,5-difluorophenyl)-5-(4-(1,1-dioxidothiomorpho-lino)phenyl)thiazol-4-yl)cyclohexane-carboxamide], the IC50 worked out at 650 nM at human cathepsin F and 1.5 nM at human cathepsin K.

Regarding `N#CC1(NC(=O)[C@@H]2CCCC[C@H]2c2nc(-c3ccc(F)c(F)c3)sc2-c2ccc(N3CCS(=O)(=O)CC3)cc2)CC1` [Example 58, (1R,2R)-N-(1-cyanocyclopropyl)-2-(2-(3,4-difluorophenyl)-5-(4-(1,1-dioxidothiomorpho-lino)phenyl)thiazol-4-yl)cyclohexane-carboxamide], the results for the IC50 at human cathepsin F and at human cathepsin K were 815 nM and 1.7 nM, respectively.

`COc1cnc(-c2nc([C@@H]3CCCC[C@H]3C(=O)NC3(C#N)CC3)c(-c3ccc(N4CCS(=O)(=O)CC4)cc3)s2)c(OC)c1` [Example 59, (1R,2R)-N-(1-cyanocyclopropyl)-2-(2-(3,5-dimethoxypyridin-2-yl)-5-(4-(1,1-dioxidothiomorpho-lino)phenyl)thiazol-4-yl)cyclohexane-carboxamide]: the IC50 was not below 10000 nM at human cathepsin F and 45.1 nM on human cathepsin K.

As for `COc1cnc(-c2nc([C@@H]3CCCC[C@H]3C(=O)NC3(C#N)CC3)c(-c3ccc(N4CCS(=O)(=O)CC4)cc3)s2)c(F)c1` [Example 60, (1R,2R)-N-(1-cyanocyclopropyl)-2-(5-(4-(1,1-dioxidothiomorpho-lino)phenyl)-2-(3-fluoro-5-methoxypyridin-2-yl)thiazol-4-yl)cyclohexane-carboxamide], the values for the IC50 at human cathepsin F and at human cathepsin K were 7910 nM and 5.1 nM, respectively.

As to `N#Cc1cc(F)ccc1-c1nc([C@@H]2CCCC[C@H]2C(=O)NC2(C#N)CC2)c(-c2ccc(N3CCS(=O)(=O)CC3)cc2)s1` [Example 61, (1R,2R)-2-(2-(2-cyano-4-fluorophenyl)-5-(4-(1,1-dioxidothiomorpho-lino)phenyl)thiazol-4-yl)-N-(1-cyanocyclopropyl) cyclohexanecarbox-amide], the values for the IC50 at human cathepsin F and on human cathepsin K were 7650 nM and 5.9 nM, respectively.

In the case of `N#CC1(NC(=O)[C@@H]2CCCC[C@H]2c2nc(-c3cccc(F)c3F)sc2-c2ccc(N3CCS(=O)(=O)CC3)cc2)CC1` [Example 62, (1R,2R)-N-(1-cyanocyclopropyl)-2-(2-(2,3-difluorophenyl)-5-(4-(1,1-dioxidothiomorpho-lino)phenyl)thiazol-4-yl)cyclohexane-carboxamide], the IC50 came out at 1000 nM at human cathepsin F and 2.1 nM at human cathepsin K.

`N#CC1(NC(=O)[C@@H]2CCCC[C@H]2c2nc(-c3cccc(F)c3)sc2-c2ccc(N3CCS(=O)(=O)CC3)cc2)CC1` [Example 64, (1R,2R)-N-(1-cyanocyclopropyl)-2-(5-(4-(1,1-dioxidothiomorpho-lino)phenyl)-2-(3-fluorophenyl)thiazol-4-yl)cyclohexane-carboxamide]: the IC50 came out at 1330 nM on human cathepsin F and 1.4 nM on human cathepsin K.

As for `N#CC1(NC(=O)[C@@H]2CCCC[C@H]2c2nc(-c3ncc(F)cc3F)sc2-c2ccc(N3CCS(=O)(=O)CC3)cc2)CC1` [Example 65, (1R,2R)-N-(1-cyanocyclopropyl)-2-(2-(3,5-difluoropyridin-2-yl)-5-(4-(1,1-dioxidothiomorpho-lino)phenyl)thiazol-4-yl)cyclohexane-carboxamide], the figures for the IC50 on human cathepsin F and on human cathepsin K were 1000 nM and 7 nM, respectively.

Take `N#Cc1cccc(-c2nc([C@@H]3CCCC[C@H]3C(=O)NC3(C#N)CC3)c(-c3ccc(N4CCS(=O)(=O)CC4)cc3)s2)c1` [Example 66, (1R,2R)-N-(1-cyanocyclopropyl)-2-(2-(3-cyanophenyl)-5-(4-(1,1-dioxidothiomorpho-lino)phenyl)thiazol-4-yl)cyclohexane-carboxamide]: the values for the IC50 on human cathepsin F and on human cathepsin K were 1410 nM and 2 nM, respectively.

Regarding `Cc1ccc(-c2nc([C@@H]3CCCC[C@H]3C(=O)NC3(C#N)CC3)c(-c3ccc(N4CCS(=O)(=O)CC4)cc3)s2)c(C#N)c1` [Example 67, (1R,2R)-2-(2-(2-cyano-4-methylphenyl)-5-(4-(1,1-dioxidothiomorpho-lino)phenyl)thiazol-4-yl)-N-(1-cyanocyclopropyl) cyclohexanecarbox-amide], the figures for the IC50 at human cathepsin F and at human cathepsin K were not below 10000 nM and 5.8 nM, respectively.

With `N#CC1(NC(=O)[C@@H]2C[C@@H](F)CC[C@H]2c2nc(-c3cncc(Cl)c3)sc2-c2ccc(N3CCS(=O)(=O)CC3)cc2)CC1` [Example 68, (1R,2R,5S)-2-(2-(5-chloropyridin-3-yl)-5-(4-(1,1-dioxidothiomorpho-lino)phenyl)thiazol-4-yl)-N-(1-cyanocyclopropyl)-5-fluorocyclohexane-carboxamide], the IC50 at human cathepsin F worked out at 2310 nM; on human cathepsin K, 1.7 nM.

Consider `N#CC1(NC(=O)[C@@H]2C[C@@H](F)CC[C@H]2c2nc(-c3ccc(F)cn3)sc2-c2ccc(N3CCS(=O)(=O)CC3)cc2)CC1` [Example 69, (1R,2R,5S)-N-(1-cyanocyclopropyl)-2-(5-(4-(1,1-dioxidothiomorpho-lino)phenyl)-2-(5-fluoropyridin-2-yl)thiazol-4-yl)-5-fluorocyclohexane-carboxamide], for which the IC50 at human cathepsin F is 2600 nM; at human cathepsin K, 1.2 nM.

As to `N#CC1(NC(=O)[C@@H]2CCCC[C@H]2c2nc(-c3ncccn3)sc2-c2ccc(N3CCS(=O)(=O)CC3)cc2)CC1` [Example 70, (1R,2R)-N-(1-cyanocyclopropyl)-2-(5-(4-(1,1-dioxidothiomorpho-lino)phenyl)-2-(pyrimidin-2-yl)thiazol-4-yl)cyclohexane-carboxamide], the IC50 is not below 10000 nM at human cathepsin F and 27.1 nM at human cathepsin K.

As for `N#CC1(NC(=O)[C@@H]2CCCC[C@H]2c2nc(-c3cnc(N)nc3)sc2-c2ccc(N3CCS(=O)(=O)CC3)cc2)CC1` [Example 71, (1R,2R)-2-(2-(2-aminopyrimidin-5-yl)-5-(4-(1,1-dioxidothiomorpho-lino)phenyl)thiazol-4-yl)-N-(1-cyanocyclopropyl) cyclohexanecarbox-amide], the IC50 at human cathepsin F stood at 2320 nM; at human cathepsin K, 2.3 nM.

As to `N#CC1(NC(=O)[C@@H]2CCCC[C@H]2c2nc(-c3cccnc3)sc2-c2ccc(N3CCS(=O)(=O)C4(CC4)C3)cc2)CC1` [Example 72, (1R,2R)-N-(1-cyanocyclopropyl)-2-(5-(4-(4,4-dioxido-4-thia-7-azaspiro[2.5]octan-7-yl)phenyl)-2-(pyridin-3-yl)thiazol-4-yl)cyclohexane-carboxamide], the IC50 at human cathepsin F was determined as 2150 nM; on human cathepsin K, 2.3 nM.

Consider `CS(=O)(=O)C1CN(c2ccc(-c3sc(-c4cccnc4)nc3[C@@H]3CCCC[C@H]3C(=O)NC3(C#N)CC3)cc2)C1` [Example 73, (1R,2R)-N-(1-cyanocyclopropyl)-2-(5-(4-(3-(methylsulfonyl)azetidin-1-yl)phenyl)-2-(pyridin-3-yl)thiazol-4-yl)cyclohexane-carboxamide], for which the IC50 on human cathepsin F is 1200 nM; on human cathepsin K, 2.2 nM.
